Reference: ChEMBL document CHEMBL5055669, “Development of Potent and Selective Agonists for Complement C5a Receptor 1 with In Vivo Activity” (J Med Chem, 2021)
pEC50: −log10 of the molar value. The source made the active and inactive calls. No cut-off for these calls is given here. Square brackets hold non-standard residues; d marks the D form. Peptide text beside a SMILES is read from it. Nva = CCC[C@H](N)C(=O)O; Abu = CC[C@H](N)C(=O)O

Columns and labels:
[1] = target: T1, C5a anaphylatoxin chemotactic receptor 1 (Homo sapiens, UniProt P21730); assay: Agonist activity at human C5aR1 expressed in CHO cells assessed as induction of ERK1/2 phosphorylation at Thr202/Tyr204 residues incubated for 10 mins by AlphaLISA assay; format: functional, cell-based
T1 sequence (P21730 whole entry): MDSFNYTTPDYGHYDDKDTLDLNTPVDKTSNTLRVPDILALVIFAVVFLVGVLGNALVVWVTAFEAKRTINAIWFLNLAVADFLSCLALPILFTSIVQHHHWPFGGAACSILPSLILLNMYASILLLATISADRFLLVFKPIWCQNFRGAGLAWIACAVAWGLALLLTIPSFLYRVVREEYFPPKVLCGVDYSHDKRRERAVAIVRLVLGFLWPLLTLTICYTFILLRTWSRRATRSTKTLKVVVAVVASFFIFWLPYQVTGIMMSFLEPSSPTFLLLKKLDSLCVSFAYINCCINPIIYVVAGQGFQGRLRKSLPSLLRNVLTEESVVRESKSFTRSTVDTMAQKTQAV

[2] = species on record: Homo sapiens; assay: Selectivity ratio of EC50 for agonist activity at human C3aR expressed in CHO cells to EC50 for agonist activity at human C5aR1 expressed in CHO cells; format: cell-based
[3] = target: T2, C3a anaphylatoxin chemotactic receptor (Homo sapiens, UniProt Q16581); assay: Agonist activity at human C3aR expressed in CHO cells assessed as induction of ERK1/2 phosphorylation at Thr202/Tyr204 residues incubated for 10 mins by AlphaLISA assay; format: functional, cell-based; details: for EC50: read-out: pEC50 (converted); for pEC50: read-out: EC50
T2 sequence (Q16581 whole entry): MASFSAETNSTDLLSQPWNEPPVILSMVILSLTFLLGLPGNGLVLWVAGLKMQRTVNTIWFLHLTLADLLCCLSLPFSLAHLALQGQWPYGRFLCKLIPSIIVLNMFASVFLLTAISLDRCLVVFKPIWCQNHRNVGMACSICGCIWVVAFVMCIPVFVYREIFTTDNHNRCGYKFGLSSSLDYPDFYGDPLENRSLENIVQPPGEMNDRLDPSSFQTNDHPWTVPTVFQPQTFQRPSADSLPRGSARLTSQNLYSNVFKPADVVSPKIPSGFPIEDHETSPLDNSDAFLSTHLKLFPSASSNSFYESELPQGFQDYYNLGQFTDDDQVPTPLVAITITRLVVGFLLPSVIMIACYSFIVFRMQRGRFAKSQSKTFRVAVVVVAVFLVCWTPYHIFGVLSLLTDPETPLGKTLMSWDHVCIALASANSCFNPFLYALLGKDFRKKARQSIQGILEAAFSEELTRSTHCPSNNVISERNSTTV

[4] = target: T3, C5a anaphylatoxin chemotactic receptor 1 (Mus musculus, UniProt P30993); assay: Agonist activity at C5aR1 in mouse RAW264.7 cells assessed as induction of ERK1/2 phosphorylation at Thr202/Tyr204 residues incubated for 10 mins by AlphaLISA assay; format: functional, cell-based
T3 sequence (P30993 whole entry): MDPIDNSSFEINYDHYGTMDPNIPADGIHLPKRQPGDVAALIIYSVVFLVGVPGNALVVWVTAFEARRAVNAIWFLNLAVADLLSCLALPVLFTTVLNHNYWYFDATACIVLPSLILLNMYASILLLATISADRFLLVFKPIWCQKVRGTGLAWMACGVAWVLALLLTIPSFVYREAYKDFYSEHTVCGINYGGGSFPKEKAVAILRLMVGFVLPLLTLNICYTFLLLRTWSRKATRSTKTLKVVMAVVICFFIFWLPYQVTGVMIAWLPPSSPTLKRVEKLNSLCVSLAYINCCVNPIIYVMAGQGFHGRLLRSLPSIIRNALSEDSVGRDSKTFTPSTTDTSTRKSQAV

[5] = target: T4, C5a anaphylatoxin chemotactic receptor 1 (Mus musculus) (UniProt P30993); assay: Agonist activity at C5aR1 in mouse RAW264.7 cells assessed as induction of ERK1/2 phosphorylation at Thr202/Tyr204 residues at up to 100 uM incubated for 10 mins in presence of JPE1375 by AlphaLISA assay; format: functional, cell-based
T4 sequence (whole entry): T3 sequence (P30993 whole entry)

[6] = target: T4, C5a anaphylatoxin chemotactic receptor 1 (Mus musculus); assay: Agonist activity at C5aR1 in mouse RAW264.7 cells assessed as induction of ERK1/2 phosphorylation at Thr202/Tyr204 residues at up to 100 uM incubated for 10 mins by AlphaLISA assay; format: functional, cell-based
[7] = system: Mus musculus; assay: Antiinflammatory activity in C57BL/6J mouse assessed as polymorphonuclear leucocyte mobilization at 50 ug/kg, iv measured after 30 mins by hemacolor-staining based microscopic analysis relative to control; format: functional; details: dose 50 µg/kg, 0.5 h
[8] = system: MDM; assay: Antiinflammatory activity in human MDM cells assessed as suppression of LPS-induced TNFalpha production at 1 uM measured after 24 hrs by ELISA; format: functional, cell-based
[9] = Ratio of EC50 for agonist activity at C5aR1 in mouse RAW264.7 cells to EC50 for agonist activity at human C5aR1 expressed in CHO cells; format: cell-based
[10] = system: MDM; assay: Antiinflammatory activity in human MDM cells assessed as suppression of LPS-induced IL-6 production at 1 uM measured after 24 hrs by ELISA; format: functional, cell-based

Compound | pEC50 [1] | Ratio EC50 [2] | EC50 [3] | further results
CC(C)C[C@H](NC(=O)[C@H](C)NC(=O)[C@H](CC(C)C)NC(=O)[C@@H]1CCCN1C(=O)[C@H](CCCCN)NC(=O)[C@@H](N)Cc1ccccc1)C(=O)N[C@H](C)C(=O)N[C@@H](CCCNC(=N)N)C(=O)O | 8.36 | 109 | 435 nM | –
CC(C)C[C@H](NC(=O)[C@@H]1CCCN1C(=O)[C@H](CC(C)C)NC(=O)[C@@H]1CCCN1C(=O)[C@H](CCCCN)NC(=O)[C@H](C)N)C(=O)N[C@H](C)C(=O)N[C@@H](CCCNC(=N)N)C(=O)O | 4.72 | 0.033 | 631 nM | –
CC(=O)N[C@@H](Cc1ccccc1)C(=O)N[C@@H](CCCCN)C(=O)N1CCC[C@H]1C(=O)N[C@@H](CC(C)C)C(=O)N[C@@H](C)C(=O)N[C@@H](C)C(=O)N[C@H](C)C(=O)N[C@@H](CCCNC(=N)N)C(=O)O (Ac-FKPLAA[dA]R-OH) | – | – | – | pEC50 [4]: 4.64; Activity [5]: inactive
CC(C)C[C@H](NC(=O)[C@H](C)NC(=O)[C@@H](NC(=O)[C@@H]1CCCN1C(=O)[C@H](CCCCN)NC(=O)[C@@H](N)Cc1ccccc1)[C@@H](C)O)C(=O)N[C@H](C)C(=O)N[C@@H](CCCNC(=N)N)C(=O)O | 7.98 | 3.7 | 37.1 nM | –
CCC[C@H](NC(=O)[C@H](C)NC(=O)[C@H](CC(C)C)NC(=O)[C@@H]1CCCN1C(=O)[C@H](CCCCN)NC(=O)[C@H](Cc1ccccc1)NC(C)=O)C(=O)N[C@@H](C)C(=O)N[C@@H](CCCNC(=N)N)C(=O)O (Ac-FKPLA[Nva]AR-OH) | – | – | 752 nM | –
CC(C)C[C@H](NC(=O)[C@H](C)NC(=O)[C@H](CC(C)C)NC(=O)[C@@H]1CCCN1C(=O)[C@H](CCCCN)NC(=O)[C@H](C)N)C(=O)N[C@H](C)C(=O)N[C@@H](CCCNC(=N)N)C(=O)O | 5.84 | 0.4 | 532 nM | –
C[C@H](NC(=O)[C@H](C)NC(=O)[C@@H](NC(=O)[C@@H]1CCCN1C(=O)[C@H](CCCCN)NC(=O)[C@@H](N)Cc1ccccc1)[C@@H](C)O)C(=O)N[C@H](C)C(=O)N[C@@H](CCCNC(=N)N)C(=O)O | 6.05 | 7.8 | 7010 nM | –
CC(C)C[C@H](NC(=O)[C@@H]1CCCN1C(=O)[C@H](CC(C)C)NC(=O)[C@H](C)NC(=O)[C@H](CCCCN)NC(=O)[C@@H](N)Cc1ccccc1)C(=O)N[C@H](C)C(=O)N[C@@H](CCCNC(=N)N)C(=O)O | 7.71 | 3.26 | 61.9 nM | –
CC(C)C[C@H](NC(=O)[C@@H]1CCCN1C(=O)[C@H](CCCCN)NC(=O)[C@@H](N)Cc1ccccc1)C(=O)N[C@@H](C)C(=O)N[C@@H](C)C(=O)N[C@H](C)C(=O)N[C@@H](CCCNC(=N)N)C(N)=O | – | – | – | pEC50 [3]: < 4.00
CC(=O)N[C@@H](Cc1ccccc1)C(=O)N[C@@H](CCCCN)C(=O)N1CCC[C@H]1C(=O)N[C@@H](CC(C)C)C(=O)N[C@@H](C)C(=O)N[C@H](C(=O)N[C@H](C)C(=O)N[C@@H](CCCNC(=N)N)C(=O)O)[C@@H](C)O | 7.47 | 2050 | 69800 nM | –
CC(C)C[C@H](NC(=O)[C@@H]1CCCN1C(=O)[C@H](CC(C)C)NC(=O)[C@@H]1CCCN1C(=O)[C@H](C)NC(=O)[C@@H](N)Cc1ccccc1)C(=O)N[C@H](C)C(=O)N[C@@H](CCCNC(=N)N)C(=O)O | 6.15 | 0.4 | 282 nM | –
CC(C)C[C@H](NC(=O)[C@@H]1CCCN1C(=O)[C@H](CCCCN)NC(=O)[C@@H](N)Cc1ccccc1)C(=O)N[C@@H](C)C(=O)N[C@@H](C)C(=O)N[C@H](C)C(=O)N[C@@H](CCCNC(=N)N)C(=O)O | – | – | 131000 nM | Activity [6]: inactive
CC[C@H](NC(=O)[C@H](C)NC(=O)[C@H](CC(C)C)NC(=O)[C@@H]1CCCN1C(=O)[C@H](CCCCN)NC(=O)[C@H](Cc1ccccc1)NC(C)=O)C(=O)N[C@H](C)C(=O)N[C@@H](CCCNC(=N)N)C(=O)O (Ac-FKPLA[Abu][dA]R-OH) | 8.24 | 2420 | 14500 nM | Activity [7]: 41%; pEC50 [4]: 5.64; Activity [5]: inactive; Activity [8]: Active; Ratio EC50 [9]: 1000; Activity [10]: Active
CC(C)C[C@H](NC(=O)[C@@H]1CCCN1C(=O)[C@H](C)NC(=O)[C@@H]1CCCN1C(=O)[C@H](CCCCN)NC(=O)[C@@H](N)Cc1ccccc1)C(=O)N[C@H](C)C(=O)N[C@@H](CCCNC(=N)N)C(=O)O | 7.35 | 0.25 | 11 nM | –
CC[C@@H](C)[C@@H](NC(=O)[C@H](C)NC(=O)[C@H](CC(C)C)NC(=O)[C@@H]1CCCN1C(=O)[C@H](CCCCN)NC(=O)[C@H](Cc1ccccc1)NC(C)=O)C(=O)N[C@@H](C)C(=O)N[C@@H](CCCNC(=N)N)C(=O)O | 8.81 | 214 | 429 nM | –
CC(C)C[C@H](NC(=O)[C@H](C)NC(=O)[C@@H](NC(=O)[C@@H]1CCCN1C(=O)[C@H](CCCNC(=N)N)NC(=O)[C@@H](N)Cc1ccccc1)[C@@H](C)O)C(=O)N[C@H](C)C(=O)N[C@@H](CCCNC(=N)N)C(=O)O | 7.61 | 0.4 | 9.04 nM | –
CC(C)C[C@H](NC(=O)[C@@H]1CCCN1C(=O)[C@H](CCCCN)NC(=O)[C@@H](N)Cc1ccccc1)C(=O)N1CCC[C@H]1C(=O)N[C@@H](C)C(=O)N[C@H](C)C(=O)N[C@@H](CCCNC(=N)N)C(=O)O | – | – | 54800 nM | –
CC(=O)N[C@@H](Cc1ccccc1)C(=O)N[C@H]1CCCCNC(=O)[C@H](CCCNC(=N)N)NC(=O)[C@@H](C)NC(=O)[C@H](C)NC(=O)[C@H](C)NC(=O)[C@H](CC(C)C)NC(=O)[C@@H]2CCCN2C1=O | – | – | – | pEC50 [3]: < 4.00
CC(=O)N[C@@H](Cc1ccccc1)C(=O)N[C@@H](CCCCN)C(=O)N1CCC[C@H]1C(=O)N[C@@H](CC(C)C)C(=O)N[C@@H](C)C(=O)N[C@@H](Cc1ccccc1)C(=O)N[C@H](C)C(=O)N[C@@H](CCCNC(=N)N)C(=O)O (Ac-FKPLAF[dA]R-OH) | 7.13 | 51.5 | 3760 nM | –
CC(C)C[C@H](NC(=O)[C@@H]1CCCN1C(=O)[C@H](CCCCN)NC(=O)[C@@H](N)Cc1ccccc1)C(=O)N[C@@H](C)C(=O)N[C@@H](C)C(=O)N[C@@H](C)C(=O)N[C@@H](CCCNC(=N)N)C(=O)O | – | – | 17300 nM | –
CC(C)C[C@H](NC(=O)[C@@H]1CCCN1C(=O)[C@H](CC(C)C)NC(=O)[C@@H]1CCCN1C(=O)[C@H](CCCCN)NC(=O)[C@@H](N)Cc1ccccc1)C(=O)N[C@H](C)C(=O)N[C@@H](CCCNC(=N)N)C(=O)O (H-FKPLPL[dA]R-OH) | – | – | 129 nM | –
